{"source": "ChEMBL document CHEMBL1137972", "about": "“Synthesis and anti-HCMV activity of 1-acyl-beta-lactams and 1-acylazetidines derived from phenylalanine” (Bioorg Med Chem Lett, 2004)", "key": {"[1]": {"system": "HEL", "assay": "Effective concentration against human cytomegalovirus AD-169 strain in HEL cell cultures", "assay_type": "functional, cell-based"}, "[2]": {"system": "HEL", "assay": "Effective concentration against human cytomegalovirus Davies strain in HEL cell cultures", "assay_type": "functional, cell-based"}, "[3]": {"system": "HEL", "assay": "Cytotoxic concentration required to reduce HEL cell growth by 50%", "assay_type": "functional", "details": "Homo sapiens"}}}
{"smiles": "CC(C)(C)OC(=O)C1(Cc2ccccc2)CC(=O)N1C(=O)OCc1ccccc1", "note": "(centres undefined)", "values": [{"measurement": "EC50", "setting": "[1]", "value": 11, "unit": "µM"}, {"measurement": "EC50", "setting": "[2]", "value": 13, "unit": "µM"}, {"measurement": "CC50", "setting": "[3]", "value": 36, "unit": "µM"}]}
{"smiles": "C[C@@H](NC(=O)N1C(=O)C[C@@]1(Cc1ccccc1)C(=O)OC(C)(C)C)c1ccccc1", "values": [{"measurement": "EC50", "setting": "[1]", "value": 32, "unit": "µM"}, {"measurement": "EC50", "setting": "[2]", "value": 33, "unit": "µM"}, {"measurement": "CC50", "setting": "[3]", "value": 70, "unit": "µM"}]}
{"smiles": "C[C@@H](NC(=O)N1C(=O)C[C@]1(Cc1ccccc1)C(=O)OC(C)(C)C)c1ccccc1", "values": [{"measurement": "EC50", "setting": "[1]", "value": 100, "unit": "µM"}, {"measurement": "EC50", "setting": "[2]", "value": 107, "unit": "µM"}, {"measurement": "CC50", "setting": "[3]", "value": "> 200", "unit": "µM"}]}
{"smiles": "C[C@@H](NC(=O)N1C(=O)C[C@@]1(Cc1ccccc1)C(=O)O)c1ccccc1", "values": [{"measurement": "EC50", "setting": "[1]", "value": "> 200", "unit": "µM"}, {"measurement": "EC50", "setting": "[2]", "value": "> 200", "unit": "µM"}, {"measurement": "CC50", "setting": "[3]", "value": "> 200", "unit": "µM"}]}
{"smiles": "C[C@H](NC(=O)N1C(=O)C[C@@]1(Cc1ccccc1)C(=O)OC(C)(C)C)c1ccccc1", "values": [{"measurement": "EC50", "setting": "[1]", "value": 35, "unit": "µM"}, {"measurement": "EC50", "setting": "[2]", "value": 35, "unit": "µM"}, {"measurement": "CC50", "setting": "[3]", "value": 184, "unit": "µM"}]}
{"smiles": "C[C@@H](NC(=O)N1C(=O)C[C@]1(Cc1ccccc1)C(=O)O)c1ccccc1", "values": [{"measurement": "EC50", "setting": "[1]", "value": "> 50", "unit": "µM"}, {"measurement": "EC50", "setting": "[2]", "value": "> 50", "unit": "µM"}, {"measurement": "CC50", "setting": "[3]", "value": "> 200", "unit": "µM"}]}
{"smiles": "C[C@H](NC(=O)N1C(=O)C[C@]1(Cc1ccccc1)C(=O)O)c1ccccc1", "values": [{"measurement": "EC50", "setting": "[1]", "value": "> 200", "unit": "µM"}, {"measurement": "EC50", "setting": "[2]", "value": "> 200", "unit": "µM"}, {"measurement": "CC50", "setting": "[3]", "value": "> 200", "unit": "µM"}]}
{"smiles": "CC(C)(C)OC(=O)C1(Cc2ccccc2)CC(=O)N1C(=O)Nc1ccccc1", "note": "(centres undefined)", "values": [{"measurement": "EC50", "setting": "[1]", "value": 50, "unit": "µM"}, {"measurement": "EC50", "setting": "[2]", "value": 50, "unit": "µM"}, {"measurement": "CC50", "setting": "[3]", "value": 118, "unit": "µM"}]}
{"smiles": "CC(C)(C)OC(=O)C1(Cc2ccccc2)CCN1C(=O)OCc1ccccc1", "note": "(centres undefined)", "values": [{"measurement": "EC50", "setting": "[1]", "value": 0.74, "unit": "µM"}, {"measurement": "EC50", "setting": "[2]", "value": 0.62, "unit": "µM"}, {"measurement": "CC50", "setting": "[3]", "value": 34, "unit": "µM"}]}
{"smiles": "CC(C)(C)OC(=O)N1C(=O)CC1(Cc1ccccc1)C(=O)OC(C)(C)C", "note": "(centres undefined)", "values": [{"measurement": "EC50", "setting": "[1]", "value": "> 200", "unit": "µM"}, {"measurement": "EC50", "setting": "[2]", "value": "> 200", "unit": "µM"}, {"measurement": "CC50", "setting": "[3]", "value": "> 200", "unit": "µM"}]}
{"smiles": "C[C@H](NC(=O)N1C(=O)C[C@@]1(Cc1ccccc1)C(=O)O)c1ccccc1", "values": [{"measurement": "EC50", "setting": "[1]", "value": "> 50", "unit": "µM"}, {"measurement": "EC50", "setting": "[2]", "value": "> 50", "unit": "µM"}, {"measurement": "CC50", "setting": "[3]", "value": 187, "unit": "µM"}]}
{"smiles": "O=C1C[C@H](Cc2ccccc2)N1C(=O)NCc1ccccc1", "values": [{"measurement": "EC50", "setting": "[1]", "value": 53, "unit": "µM"}, {"measurement": "CC50", "setting": "[3]", "value": "> 750", "unit": "µM"}]}
{"smiles": "C[C@H](NC(=O)N1C(=O)C[C@]1(Cc1ccccc1)C(=O)OC(C)(C)C)c1ccccc1", "values": [{"measurement": "EC50", "setting": "[1]", "value": 32, "unit": "µM"}, {"measurement": "EC50", "setting": "[2]", "value": 33, "unit": "µM"}, {"measurement": "CC50", "setting": "[3]", "value": 164, "unit": "µM"}]}
{"smiles": "Nc1ccn(C[C@@H](CO)OCP(=O)(O)O)c(=O)n1", "note": "[CIDOFOVIR]", "values": [{"measurement": "EC50", "setting": "[1]", "value": 0.16, "unit": "µM"}, {"measurement": "EC50", "setting": "[2]", "value": 0.5, "unit": "µM"}, {"measurement": "CC50", "setting": "[3]", "value": "> 150", "unit": "µM"}]}
{"smiles": "Nc1nc2c(ncn2COC(CO)CO)c(=O)[nH]1", "note": "[GANCICLOVIR]", "values": [{"measurement": "EC50", "setting": "[1]", "value": 0.9, "unit": "µM"}, {"measurement": "EC50", "setting": "[2]", "value": 0.8, "unit": "µM"}, {"measurement": "CC50", "setting": "[3]", "value": "> 150", "unit": "µM"}]}
